Data reported in patent publication US10738071B2, “Polymorphic forms of sofosbuvir” (Mylan Laboratories Limited, priority 2016, dated 2020).

Experiment: physical and chemical stability of sofosbuvir form-M3 on storage (water content, PXRD, HPLC purity)
Assay type: physicochemical
Procedure: The crystalline sofosbuvir form-M3 disclosed herein may be characterized by X-ray powder diffraction. Therefore, samples of crystalline sofosbuvir form-M3 were analyzed on a PANalytical, X'pert PRO powder diffractometer equipped with goniometer of θ/θ configuration and X'Celerator detector. The Cu-anode X-ray tube was operated at 40 kV and 30 mA. The experiments were conducted over the 2θ range of 2.0°-50.0°, 0.030° step size and 50 seconds step time.
Water content was determined on an 841 Titrando Karl-Fischer titrator (Metrohm) by placing 40 mL dehydrated methanol in the titration vessel and titrating with a standardized reagent to reach the electrometric endpoint. A sample (e.g., 0.20 g sofosbuvir form-M3) was added, the mixture was stirred for 1 minute, then titrated to the endpoint with a Karl-Fischer reagent. For each determination, fresh methanol was used. The following calculations may be used to determine water content of each sample:
The physical and chemical stability of sofosbuvir form-M3 was determined by storing the samples at 25±2° C./60±5% relative humidity (RH) and at 40±2° C./75±5% RH for 6 months. The samples were tested to determine water content, detect degradation crystalline form by PXRD analysis, and measure purity by HPLC analysis. HPLC analysis was performed by the parameters listed below:
Chromatographic Conditions:
Injection volume: 20.0 μL
Column oven temperature: 45° C.
Sample temperature: 10° C.
Acquisition time: 25 minutes
Water: Acetonitrile (80:20) % v/v
As an example, Table 1 below discloses data collected on sofosbuvir form-M3 under various storage conditions.

[1] = stored at 25 ± 2° C./60 ± 5% RH, 1 months
[2] = stored at 25 ± 2° C./60 ± 5% RH, 2 months
[3] = stored at 25 ± 2° C./60 ± 5% RH, 3 months
[4] = stored at 25 ± 2° C./60 ± 5% RH, 6 months
[5] = stored at 25 ± 2° C./60 ± 5% RH, Initial
[6] = stored at 40 ± 2° C./75 ± 5% RH, 1 months
[7] = stored at 40 ± 2° C./75 ± 5% RH, 2 months
[8] = stored at 40 ± 2° C./75 ± 5% RH, 3 months
[9] = stored at 40 ± 2° C./75 ± 5% RH, 6 months
[10] = stored at 40 ± 2° C./75 ± 5% RH, Initial
[11] = up to six months at 25±2° C./60±5% RH and at 40±2° C./75±5% RH

CC(C)OC(=O)[C@H](C)N[P@](=O)(OC[C@H]1O[C@@H](n2ccc(=O)[nH]c2=O)[C@](C)(F)[C@@H]1O)Oc1ccccc1 [sofosbuvir form-M3, (S)-isopropyl 2-((S)-(((2R,3R,4R,5R)-5-(2,4-dioxo3,4-dihydropyrimidin-1(2H)-yl)-4-fluoro-3-hydroxy-4-methyltetrahydrofuran-2yl)methoxy)-(phenoxy)phosphorylamino)propanoate]
HPLC Purity [1]: 99.90%
PXRD [1]: form-M3
Water content [1]: 3.39%
HPLC Purity [2]: 99.90%
PXRD [2]: form-M3
Water content [2]: 3.45%
HPLC Purity [3]: 99.89%
PXRD [3]: form-M3
Water content [3]: 3.35%
HPLC Purity [4]: 99.92%
PXRD [4]: form-M3
Water content [4]: 3.34%
HPLC Purity [5]: 99.92%
PXRD [5]: form-M3
Water content [5]: 3.59%
HPLC Purity [6]: 99.90%
PXRD [6]: form-M3
Water content [6]: 3.55%
HPLC Purity [7]: 99.90%
PXRD [7]: form-M3
Water content [7]: 3.33%
HPLC Purity [8]: 99.89%
PXRD [8]: form-M3
Water content [8]: 3.19%
HPLC Purity [9]: 99.91%
PXRD [9]: form-M3
Water content [9]: 3.00%
HPLC Purity [10]: 99.92%
PXRD [10]: form-M3
Water content [10]: 3.59%
change in PXRD pattern on storage [11]: no significant change in PXRD pattern
change in moisture content on storage [11]: no significant change in moisture content
change in purity on storage [11]: no significant change in purity
